Measured values: patent publication US20040106545A1, “Compounds and methods for modulating cell adhesion” (priority 1996, published 2004)
Where two headings read alike, the source gives them in different places. Positions of bridges follow the written chain, without caps; N, C: chain ends. Residues, ends and D or L forms follow the SMILES beside them.

Columns and labels:
[1] = tested on: Madin Darby canine kidney (MDCK) cells; format: cell-based; details: 18 h
[2] = target: T1, chick N-cadherin (Gallus gallus, UniProt P10288); assay: Neurite outgrowth of rat cerebellar neurons on N-cadherin expressing 3T3 monolayers (Example 15); format: cell-based; details: 250 μg/mL, 16-18 hours; read-out: % Inhibition of N-Cadherin Dependent Neurite Outgrowth
T1 construct: expressed in transfected cells; host or cells: 3T3 fibroblasts (monolayer); rat post-natal day 2-3 cerebellar neurons plated on top
T1 sequence (P10288 165-912): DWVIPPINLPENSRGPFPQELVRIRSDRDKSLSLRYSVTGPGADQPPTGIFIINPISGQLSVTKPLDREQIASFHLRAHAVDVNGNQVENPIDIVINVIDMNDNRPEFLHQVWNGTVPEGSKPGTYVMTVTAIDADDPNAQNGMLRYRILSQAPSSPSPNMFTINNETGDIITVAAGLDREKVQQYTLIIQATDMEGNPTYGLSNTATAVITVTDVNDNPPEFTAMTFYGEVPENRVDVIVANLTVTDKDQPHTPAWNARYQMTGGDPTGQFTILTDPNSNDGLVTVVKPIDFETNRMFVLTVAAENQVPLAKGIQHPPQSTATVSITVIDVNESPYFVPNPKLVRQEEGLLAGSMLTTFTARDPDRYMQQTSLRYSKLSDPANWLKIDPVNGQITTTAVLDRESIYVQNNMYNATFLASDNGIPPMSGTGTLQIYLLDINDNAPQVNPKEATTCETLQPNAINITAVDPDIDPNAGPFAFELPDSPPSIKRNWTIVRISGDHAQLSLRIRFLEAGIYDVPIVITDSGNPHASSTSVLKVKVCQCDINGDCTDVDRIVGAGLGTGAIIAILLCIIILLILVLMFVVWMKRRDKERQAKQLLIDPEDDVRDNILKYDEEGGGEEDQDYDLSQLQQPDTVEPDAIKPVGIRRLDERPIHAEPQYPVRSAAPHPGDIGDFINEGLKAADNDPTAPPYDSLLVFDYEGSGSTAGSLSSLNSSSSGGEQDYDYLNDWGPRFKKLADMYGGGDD
Protocol: Cell culture and neurite outgrowth assays. Co-cultures of cerebellar neurons on monolayers of control 3T3 cells and monolayers of transfected 3T3 cells that express physiological levels of chick N-cadherin or human L1 were established as previously described (Williams et al., Neuron 13:583-594, 1994). In brief, 80,000 3T3 cells (control and transfected) were plated into individual chambers of an eight-chamber tissue culture slide coated with polylysine and fibronectin and cultured in DMEM/10% FCS. After 24 hours, when confluent monolayers had formed, the medium was removed and 3000 cerebellar neurons isolated from post-natal day 2-3 rats were plated into each well in SATO media (Doherty et al., Nature 343:464-466, 1990) supplemented with 2% FCS. All of the test peptides were added immediately before the neurons as a 2× stock prepared in SATO/2% FCS. The co-cultures were maintained for 16-18 hours, at which time they were fixed and immunostained for GAP-43 which is present only in the neurons and delineates the neuritic processes. The mean length of the longest neurite per cell was measured for 150-200 neurons sampled in replicate cultures as previously described (Williams et al., Neuron 13:583-594, 1994). […] Dose-response curves were evaluated and the EC50 values determined.

[3] = tested on: HMVEC; format: cell-based, human; details: 3 h
Protocol: (§1) N—Ac-CHAVC-NH2 (SEQ ID NO:10) and the control peptide N—Ac-CHGVC-NH2 (SEQ ID NO:11) were evaluated for possible cytotoxic effects on human microvascular endothelial (HMVEC; Clonetics), human umbilical vein endothelial (HUVEC; ATCC #CRL-1730), IAFp2 (human fibroblast cell line; Institute Armand-Frapier, Montreal, Quebec), WI-38 (human fibroblast cell line; ATCC #CCL-75), MDA-MB231 (human breast cancer cell line; ATCC #HTB-26), and PC-3 (human prostate cancer cell line; ATCC #CRL-1435) cells utilizing the MTT assay (Plumb et al., Cancer Res. 49:4435-4440, 1989). Neither of the peptides was cytotoxic at concentrations up to and including 100 μM. Similarly, neither of the peptides was capable of inhibiting the proliferation of the above cell lines at concentrations up to 100 μM, as judged by ^3H-thymidine incorporation assays.

[4] = tested on: HUVEC; format: cell-based, human; details: 3 h
Protocol: as §1

[5] = tested on: IAFp2; format: cell-based, human; details: 3 h
Protocol: as §1

[6] = tested on: MDA-MB231; format: cell-based, human; details: 3 h
Protocol: as §1

[7] = tested on: PC-3; format: cell-based, human; details: 3 h
Protocol: as §1

[8] = tested on: WI-38; format: cell-based, human; details: 3 h
Protocol: as §1

[9] = tested on: MDA-MB231; assay: Cytotoxicity, MTT assay, MDA-MB231; format: cell-based, human
Protocol: as §1

[10] = tested on: PC-3; assay: Cytotoxicity, MTT assay, PC-3; format: cell-based, human
Protocol: as §1

[11] = target: T2, N-cadherin (Gallus gallus, UniProt P10288); assay: Neurite outgrowth inhibition, rat neurons (Example 21); format: cell-based; details: read-out: % Inhibition of neurite outgrowth; 250 μg/mL
T2 construct: expressed in transfected cells; host or cells: 3T3 fibroblasts (monolayer)
T2 sequence (P10288 165-912): T1 sequence (P10288 165-912)

[12] = tested on: chick embryonic chorioallantoic membranes; assay: Chick chorioallantoic membrane angiogenesis assay; format: in vivo; details: for Percent Inhibition of Angiogenesis: 24 hours
Protocol: Another cell adhesion assay evaluates the ability of a modulating agent to block angiogenesis (the growth of blood vessels from pre-existing blood vessels). This ability may be assayed using the chick chorioallantoic membrane assay described by Iruela-Arispe et al., Molecular Biology of the Cell 6:327-343, 1995. Briefly, a modulating agent may be embedded in a mesh composed of vitrogen at one or more concentrations (e.g., ranging from about 1 to 100 μg/mesh). The mesh(es) may then be applied to chick chorioallantoic membranes. After 24 hours, the effect of the peptide may be determined using computer assisted morphometric analysis. A modulating agent should inhibit angiogenesis by at least 25% at a concentration of 33 μg/mesh.
The chick chorioallantoic membrane assay was used to assess the effects of cyclic peptides on angiogenesis (Iruela-Arispe et al., Molecular Biology of the Cell 6:327-343, 1995). Cyclic peptides were embedded in a mesh composed of vitrogen at concentrations of 3, 17, and 33 μg/mesh. The meshes were then applied to 12-day-old chick embryonic chorioallantoic membranes. After 24 hours, the effects of the peptides on angiogenesis were assessed by computer assisted morphometric analysis.

Row | SMILES | IC50 [3] | IC50 [5] | IC50 [6] | IC50 [7] | inhibition at 250 µg/mL [11] | EC50 [1] | IC50 [4] | IC50 [8] | IC50 [9] | IC50 [10] | further results
1 | CC(=O)N[C@H]1CSSC[C@@H](C(N)=O)NC(=O)[C@H](C(C)C)NC(=O)[C@H](C)NC(=O)[C@H](Cc2c[nH]cn2)NC(=O)[C@H](CO)NC(=O)[C@H](Cc2ccccc2)NC1=O [N—Ac—CFSHAVC—NH2] (Ac-CFSHAVC-NH2; disulfide 1-7) |  |  |  |  |  | 22 µM |  |  |  |  | 
2 | CC(=O)N[C@H]1CSSC[C@@H](C(=O)N[C@@H](CC(=O)O)C(N)=O)NC(=O)[C@H](C(C)C)NC(=O)[C@H](C)NC(=O)[C@H](Cc2c[nH]cn2)NC1=O [N—Ac—CHAVCD—NH2] (Ac-CHAVCD-NH2; disulfide 1-5) |  |  |  |  |  | 470 µM |  |  |  |  | inhibition at 250 µg/mL [2]: 3.3 ± 10%
3 | CC(=O)N[C@@H](CO)C(=O)N[C@H]1CSSC[C@@H](C(N)=O)NC(=O)[C@H](C(C)C)NC(=O)[C@H](C)NC(=O)[C@H](Cc2c[nH]cn2)NC1=O [N—Ac—S—CHAVC—NH2] (Ac-SCHAVC-NH2; disulfide 2-6) |  |  |  |  |  | 490 µM |  |  |  |  | 

Further lines, with some results ahead:

Row | IC50 [3] | IC50 [5] | IC50 [6] | IC50 [7] | inhibition at 250 µg/mL [11] | SMILES | EC50 [1] | IC50 [4] | IC50 [8] | IC50 [9] | IC50 [10] | further results
4 | > 100 µM | > 100 µM | > 100 µM | > 100 µM | 0% | CC(=O)N[C@H]1CSSC[C@@H](C(N)=O)NC(=O)[C@H](CO)NC(=O)[C@H](C(C)C)NC(=O)CNC(=O)[C@H](Cc2c[nH]cn2)NC1=O [N—Ac—CHGVSC—NH2] (Ac-CHGVSC-NH2; disulfide 1-6) |  | 42 µM | > 100 µM | > 100 µM | > 100 µM | 
5 | > 100 µM | > 100 µM | > 100 µM | > 100 µM | 0% | CC(=O)N[C@H]1CSSC[C@@H](C(N)=O)NC(=O)[C@H](C(C)C)NC(=O)CNC(=O)[C@H](Cc2c[nH]cn2)NC(=O)[C@H](CO)NC1=O [N—Ac—CSHGVC—NH2] (Ac-CSHGVC-NH2; disulfide 1-6) |  | > 100 µM | > 100 µM | > 100 µM | > 100 µM | 
6 | > 100 µM | > 100 µM | > 100 µM | > 100 µM |  | CC(=O)N[C@H]1CSSC[C@@H](C(N)=O)NC(=O)[C@H](Cc2c[nH]cn2)NC(=O)[C@H](C)NC(=O)[C@H](C(C)C)NC1=O [N—Ac—CVAHC—NH2] (Ac-CVAHC-NH2; disulfide 1-5) |  | 8 µM | > 100 µM | > 100 µM | > 100 µM | Percent Inhibition of Angiogenesis ([12]; 3 μg/mesh, absence (−) of 0.01 mM VEGF): −1%^; Percent Inhibition of Angiogenesis ([12]; 3 μg/mesh, presence (+) of 0.01 mM VEGF): 7%; Percent Inhibition of Angiogenesis ([12]; 17 μg/mesh, absence (−) of 0.01 mM VEGF): 13%; Percent Inhibition of Angiogenesis ([12]; 17 μg/mesh, presence (+) of 0.01 mM VEGF): 24%; Percent Inhibition of Angiogenesis ([12]; 33 μg/mesh, absence (−) of 0.01 mM VEGF): 12%; Percent Inhibition of Angiogenesis ([12]; 33 μg/mesh, presence (+) of 0.01 mM VEGF): 25%; inhibition of angiogenesis (in words) ([12]; 3, 17 and 33 μg/mesh): relatively inactive
